Results taken from ChEMBL document CHEMBL3044871, “Importance of some classes of molecular descriptors on classification of antitumor acridinones using factor analysis” (2012).

system: P388; test: Antitumor activity against Mus musculus (mouse) P388 cells xenografted in Mus musculus (mouse) assessed as increase in life span at 25 mg/kg relative to control; assay type: functional

Question: Which Activity does the source give for CN(C)CCN(C)c1ccc2nnn3c4ccc(O)cc4c(=O)c1c23 here?
Answer: The Activity was 10%.

Question: Which Activity does the source give for CN(C)CCCNc1ccc2nnn3c4ccc(O)cc4c(=O)c1c23 here?
Answer: Its Activity is 165%.

Question: How did the Activity turn out when CN(C)CCNc1ccc2nnn3c4ccc(O)cc4c(=O)c1c23 was run?
Answer: The Activity was 102%.

system: P388; test: Antitumor activity against Mus musculus (mouse) P388 cells xenografted in Mus musculus (mouse) assessed as increase in life span at 100 mg/kg relative to control; assay type: functional

Question: For CN(C)CCNc1ccc2nnn3c4ccccc4c(=O)c1c23, which Activity is on record?
Answer: The Activity was 77%.

Question: Which Activity does the source give for Cc1ccc2c(c1)c(=O)c1c(NCCCN(C)C)ccc3nnn2c31 here?
Answer: The Activity was 18%.

system: P388; test: Antitumor activity against Mus musculus (mouse) P388 cells xenografted in Mus musculus (mouse) assessed as increase in life span relative to control; assay type: functional; parameters: concentration or dose not given beside the values

Question: How did the Activity turn out when CCN(CC)CCNc1ccc2ncn3c4ccccc4c(=O)c1c23 was run?
Answer: The Activity was 55%.

Question: How did the Activity turn out when CN(C)CCNc1ccc2ncn3c4ccc(O)cc4c(=O)c1c23 was run?
Answer: The Activity was 110%.

Question: With CCN(CC)CCNc1ccc2ncn3c4ccc(OC)cc4c(=O)c1c23 as the molecule, how does the Activity read?
Answer: Its Activity is 96%.

Question: CN(C)CCCNc1ccc2ncn3c4ccc(O)cc4c(=O)c1c23 was tested. Which Activity did it give?
Answer: The Activity was 120%.

Question: CCN(CC)CCNc1ccc2nc(C)n3c4ccc(O)cc4c(=O)c1c23 was tested. Which Activity did it give?
Answer: Its Activity is 185%.

Question: Which Activity does the source give for CN(C)CCCNc1ccc2ncn3c4ccccc4c(=O)c1c23 here?
Answer: Its Activity is 25%.

Question: How did the Activity turn out when CN(C)CCCCCNc1ccc2ncn3c4ccccc4c(=O)c1c23 was run?
Answer: Its Activity is 10%.

Question: How did the Activity turn out when CN(C)CCNc1ccc2ncn3c4ccccc4c(=O)c1c23 was run?
Answer: Its Activity is 90%.

Question: Which Activity does the source give for CCN(CC)CCCCCNc1ccc2ncn3c4ccc(C)cc4c(=O)c1c23 here?
Answer: Its Activity is 20%.

Question: With CCNCCNc1ccc2nnn3c4ccc(O)cc4c(=O)c1c23 as the molecule, how does the Activity read?
Answer: The Activity was 78%.

Question: For CN(C)CCNc1ccc2nnn3c4ccc(C(C)(C)C)cc4c(=O)c1c23, which Activity is on record?
Answer: Its Activity is 0%.

Question: CN(C)CCCCCNc1ccc2ncn3c4ccc(O)cc4c(=O)c1c23 was tested. Which Activity did it give?
Answer: The Activity was 85%.

Question: CCN(CC)CCNc1ccc2ncn3c4cc(O)ccc4c(=O)c1c23 was tested. Which Activity did it give?
Answer: Its Activity is 27%.

Question: How did the Activity turn out when CCN(CC)CCNc1ccc2ncn3c4ccc(C(C)(C)C)cc4c(=O)c1c23 was run?
Answer: Its Activity is 0%.

Question: With CCN(CC)CCNc1ccc2ncn3c4ccc(O)cc4c(=O)c1c23 [C-1311] as the molecule, how does the Activity read?
Answer: The Activity was 93%.
